In patent US20050124562A1, “Bis-quinazoline compounds for the treatment of bacterial infections” (priority 2003, published 2005):
In brackets after ≈: the same amount, converted by molar mass.

What follows are molecules tested on S. aureus, E. faecalis, S. pyogenes and S. pneumoniae (assay: Broth microdilution MIC (NCCLS), gram-positive strains). Conditions: not given.
Format: cell-based
Method: Representative bis-quinazolines were tested for antibacterial activity using the […] microdilution method to determine their minimum inhibitory concentrations (MICs). All compounds were tested using standard methods in accordance with NCCLS guidelines (National Committee for Clinical Laboratory Standards. 2003. Methods for dilution antimicrobial susceptibility testing for bacteria that grow aerobically. Approved Standard M-7 A-6, NCCLS, Wayne, Pa.). The bacterial strains used in the susceptibility tests were obtained from the American Type Culture Collection (ATCC) and included resistant phenotypes such as oxacillin-resistant S. aureus (ORSA) and vancomycin-resistant enterococci (VRE). The minimum bactericidal concentrations (MBCs) were determined for selected organisms. The effect of protein binding on the antibacterial activity of representative bis-quinazolines were determined by conducting MIC tests in the presence of human serum.

SMILES	MIC [µg/mL]
COc1cccc2c(O)nc(Nc3nc(C)c4ccc5c(c4n3)OCCO5)nc12 [Example 82, 8-Methoxy-2-(8-methyl-2,3-dihydro-1,4-dioxa-5,7-diaza-phenanthren-6-ylamino)-quinazolin-4-ol]	0.06 to 16 (≈ 0.153 to 40.9 µM)

Same assay, conditions: range against some strains of S. aureus, E. faecalis, S. pyogenes and S. pneumoniae; read-out: MIC

SMILES	MIC [µg/mL]
COc1cc(OC)c2nc(Nc3nc(O)c4cc(C)cc(C)c4n3)nc(C)c2c1.O=C(O)C(F)(F)F [Example 75, 2-(6,8-Dimethoxy-4-methyl-quinazolin-2-ylamino)-6,8-dimethyl-quinazolin-4-ol trifluoroacetate salt]	0.06 to 16
COc1cc2c(C)nc(Nc3nc(O)c4cccc(OC)c4n3)nc2cc1N.O=C(O)C(F)(F)F [Example 76, 2-(6-methoxy-7-amino-4-methyl-quinazolin-2-ylamino)-8-methoxy-quinazolin-4-ol trifluoroacetate salt]	0.06 to 16
COc1ccc2c(C)nc(Nc3nc(O)c4cccc(OC)c4n3)nc2c1OC.O=C(O)C(F)(F)F [Example 78, 2-(7,8-Dimethoxy-4-methyl-quinazolin-2-ylamino)-8-methoxy-quinazolin-4-ol trifluoroacetate salt]	0.06 to 16
COCCOc1cc(OC)cc2c(C)nc(Nc3nc(O)c4cccc(OC)c4n3)nc12.O=C(O)C(F)(F)F [Example 79, 8-Methoxy-2-[6-methoxy-8-(2-methoxy-ethoxy)-4-methyl-quinazolin-2-ylamino]-quinazolin-4-ol trifluoroacetate salt]	0.06 to 16
COCCOc1ccc2nc(Nc3nc(O)c4cccc(OC)c4n3)nc(C)c2c1.O=C(O)C(F)(F)F [Example 80, 8-Methoxy-2-[6-(2-methoxy-ethoxy)-4-methyl-quinazolin-2-ylamino]-quinazolin-4-ol trifluoroacetate salt]	0.06 to 16
COCCOc1c(OC)ccc2c(C)nc(Nc3nc(O)c4cccc(OC)c4n3)nc12.O=C(O)C(F)(F)F [Example 81, 8-Methoxy-2-[7-methoxy-8-(2-methoxy-ethoxy)-4-methyl-quinazolin-2-ylamino]-quinazolin-4-ol trifluoroacetate salt]	0.06 to 16
COc1cc(OC)c2nc(Nc3nc(O)c4c(OC)ccc(OC)c4n3)nc(C)c2c1.O=C(O)C(F)(F)F [Example 100, 2-(6,8-Dimethoxy-4-methyl-quinazolin-2-ylamino)-5,8-dimethoxy-quinazolin-4-ol trifluoroacetate salt]	0.06 to 16
COc1cc2c(C)nc(Nc3nc(O)c4cccc(OC)c4n3)nc2cc1O.O=C(O)C(F)(F)F [Example 103, 2-(4-Hydroxy-8-methoxy-quinazolin-2-ylamino)-6-methoxy-4-methyl-quinazolin-7-ol trifluoroacetate salt]	0.06 to 16
COc1cc2nc(Nc3nc(O)c4cc(OCCCl)ccc4n3)nc(C)c2cc1OC.O=C(O)C(F)(F)F [Example 105, 6-(2-Chloro-ethoxy)-2-(6,7-dimethoxy-4-methyl-quinazolin-2-ylamino)-quinazolin-4-ol trifluoroacetate salt]	0.06 to 16
COc1cc(OC)c2nc(Nc3nc(O)c4cc(OCCCl)ccc4n3)nc(C)c2c1.O=C(O)C(F)(F)F [Example 107, 6-(2-Chloro-ethoxy)-2-(6,8-dimethoxy-4-methyl-quinazolin-2-ylamino)-quinazolin-4-ol trifluoroacetate salt]	0.06 to 16
COc1cc2nc(Nc3nc(O)c4c5c(ccc4n3)OCO5)nc(C)c2cc1OC.O=C(O)C(F)(F)F [Example 109, 7-(6,7-Dimethoxy-4-methyl-quinazolin-2-ylamino)-1,3-dioxa-6,8-diaza-cyclopenta[a]naphthalen-9-ol trifluoroacetate salt]	0.06 to 16
COc1cc(OC)c2nc(Nc3nc(O)c4c(OC(C)C)cccc4n3)nc(C)c2c1.O=C(O)C(F)(F)F [Example 111, 2-(6,8-Dimethoxy-4-methyl-quinazolin-2-ylamino)-5-isopropoxy-quinazolin-4-ol trifluoroacetate salt]	0.06 to 16
CCOc1cccc2nc(Nc3nc(C)c4cc(OC)cc(OC)c4n3)nc(O)c12.O=C(O)C(F)(F)F [Example 112, 2-(6,8-Dimethoxy-4-methyl-quinazolin-2-ylamino)-5-ethoxy-quinazolin-4-ol trifluoroacetate salt]	0.06 to 16
COc1cc2nc(Nc3nc(O)c4cc(N5CCOCC5)ccc4n3)nc(C)c2cc1OC.O=C(O)C(F)(F)F [Example 114, 2-(6,7-Dimethoxy-4-methyl-quinazolin-2-ylamino)-6-morpholin-4-yl-quinazolin-4-ol trifluoroacetate salt]	0.06 to 16
COc1cc2c(C)nc(Nc3nc(O)c4cccc(OC)c4n3)nc2c(OC)c1OC.O=C(O)C(F)(F)F [Example 116, 8-Methoxy-2-(6,7,8-trimethoxy-4-methyl-quinazolin-2-ylamino)-quinazolin-4-ol trifluoroacetate salt]	0.06 to 16
COc1cccc2c(O)nc(Nc3nc(C)c4ccc(F)c(OC)c4n3)nc12.O=C(O)C(F)(F)F [Example 117, 2-(7-Fluoro-8-methoxy-4-methyl-quinazolin-2-ylamino)-8-methoxy-quinazolin-4-ol trifluoroacetate salt]	0.06 to 16
COc1cc2c(C)nc(Nc3nc(O)c4cccc(F)c4n3)nc2c(OC)c1OC.O=C(O)C(F)(F)F [Example 118, 8-Fluoro-2-(6,7,8-trimethoxy-4-methyl-quinazolin-2-ylamino)-quinazolin-4-ol trifluoroacetate salt]	0.06 to 16
COc1c(F)ccc2c(C)nc(Nc3nc(O)c4cccc(F)c4n3)nc12.O=C(O)C(F)(F)F [Example 119, 8-Fluoro-2-(7-fluoro-8-methoxy-4-methyl-quinazolin-2-ylamino)-quinazolin-4-ol trifluoroacetate salt]	0.06 to 16
COc1ccc2nc(Nc3nc(O)c4cc(N)cc(OC)c4n3)nc(C)c2c1.O=C(O)C(F)(F)F [Example 123, 6-Amino-2-(6-methoxy-4-methyl-quinazolin-2-ylamino)-8-methoxy-quinazolin-4-ol trifluoroacetate salt]	0.06 to 16
COc1cc(OC)c2nc(Nc3nc(O)c4cc(N)cc(OC)c4n3)nc(C)c2c1.O=C(O)C(F)(F)F [Example 124, 6-Amino-2-(6,8-dimethoxy-4-methyl-quinazolin-2-ylamino)-8-methoxy-quinazolin-4-ol trifluoroacetate salt]	0.06 to 16
COc1cc(OC)c2nc(Nc3nc(O)c4cc(N)cc(C)c4n3)nc(C)c2c1.O=C(O)C(F)(F)F [Example 126, 6-Amino-2-(6,8-dimethoxy-4-methyl-quinazolin-2-ylamino)-8-methyl-quinazolin-4-ol trifluoroacetate salt]	0.06 to 16
COc1cc2c(C)nc(Nc3nc(O)c4cccc(OC)c4n3)nc2cc1N(C)C.O=C(O)C(F)(F)F [Example 127, 2-(7-Dimethylamino-6-methoxy-4-methyl-quinazolin-2-ylamino)-8-methoxy-quinazolin-4-ol trifluoroacetate salt]	0.06 to 16
COc1cc2nc(Nc3nc(O)c4c(N(C)C)cccc4n3)nc(C)c2cc1OC.O=C(O)C(F)(F)F [Example 128, 2-(6,7-Dimethoxy-4-methyl-quinazolin-2-ylamino)-5-dimethylamino-quinazolin-4-ol trifluoroacetate salt]	0.06 to 16
COc1cc(OC)c2nc(Nc3nc(O)c4c5c(ccc4n3)OCO5)nc(C)c2c1.O=C(O)C(F)(F)F [Example 130, 7-(6,8-Dimethoxy-4-methyl-quinazolin-2-ylamino)-1,3-dioxa-6,8-diaza-cyclopenta[a]naphthalen-9-ol trifluoroacetate salt]	0.06 to 16
